For series [1], the target named is recombinant human GST-SYK (Homo sapiens (Human), UniProt P43405). Nature of the series: Homogeneous Time-Resolved Fluorescence (HTRF) assay for the recombinant human Syk enzyme. Format: biochemical. The protocol: Homogeneous Time-Resolved Fluorescence (HTRF) Assay for the Recombinant Human Syk Enzyme
A recombinant GST-hSYK fusion protein was used to measure potency of compounds to inhibit human Syk activity. […] Final volume of the reaction was 10 μL. […] To quench the reaction and detect the phosphorylated product, 2 nM of a Europium-anti-phosphotyrosine antibody (Perkin Elmer #AD0161) and 70 nM SA-APC (Perkin-Elmer #CR130-100) were added together in 15 mM Tris pH 7.5, 40 mM EDTA, 0.01% tween 20. Final volume of the quenching solution was […]. The resulting HTRF signal was measured after 30 minutes on an EnVision (Perkin-Elmer) reader using a time-resolved fluorescence protocol.

Another series deals with PGD2. The following applies: dosed intranasally, phase I/II study, allergic rhinitis; cited from earlier work.
The conditions of series [2]: phase II clinical trial, allergic rhinitis; cited from earlier work.

Data on 2 molecules can be found in US9598405B2, “Thiazole-substituted aminopyridines as spleen tyrosine kinase inhibitors” (Merck Sharp & Dohme Corp., priority 2012, dated 2017).

The structures appear in SMILES notation.

For `COCc1cc(Nc2cc(C(F)(F)F)ccn2)nc(-c2cnc([C@]3(O)CC[C@@H](C(=O)OC)C(C)(C)C3)s2)c1` (single isomer, unassigned) [Example 4.8, methyl (1R,4S or 1S,4R)-4-hydroxy-4-{5-[4-(methoxymethyl)-6-{[4-(trifluoromethyl)pyridin-2-yl]amino}pyridin-2-yl]-1,3-thiazol-2-yl}-2,2-dimethylcyclohexanecarboxylate], the IC50 in series [1] is 1170 nM.
Take `Oc1cccc(Nc2ncc(F)c(Nc3cccc(O)c3)n2)c1` [Example R112]: in the series on PGD2, the “change in PGD2” value is reported as “statistically significant decrease” and the clinical safety entry is recorded as “safe across a range of indicators”. For the same molecule, the efficacy versus placebo result in series [2] is recorded as “lack of efficacy”.
